“And” between values parts separate entries of the source, which are not always exact repeats. Identical values can stand only once.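 Test compounds were applied to cells in 96-well plates for 48 hours at 5 doses. The concentration for 50% growth inhibition is given as GI50. At the TGI there is no net growth.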

The test system of one assay is A498 renal. The experiment in a line: growth of human tumour cells (NCI), 48 h.
For `COc1ccc(NC(=O)Nc2n[nH]c3ccccc23)cc1`, the GI50 was above 100 µM and the TGI is above 100 µM.
Take `CC(=O)Nc1cccc(-n2c(=O)n(C3CC3)c(=O)c3c(Nc4ccc(I)cc4F)n(C)c(=O)c(C)c32)c1`: the GI50 was < 0.01 µM and 0.00596 µM; the TGI is < 0.0306 µM and 0.0672 µM.
With `COC(=O)C(=O)CC(=O)CCn1ncc(Cl)c(Cl)c1=O`, the TGI turned out to be 49.6 µM.
In the case of `Fc1cccc(COc2ccc(Nc3ncncc3C#Cc3ccccc3)cc2Cl)c1`, the GI50 is above 17.1 µM and the TGI was above 25 µM.
On to `Nc1n[nH]c2ccc([C@@H]3Nc4ccc5[nH]ncc5c4[C@H]4[C@H]5CCC(C5)[C@H]43)cc12`, for which the GI50 is 0.168 µM and the TGI was 0.641 µM.

In another assay the test system is HT29 colon. Description: growth of human tumour cells (NCI), 48 h.
Consider `COc1ccc(NC(=O)Nc2n[nH]c3ccccc23)cc1`, for which the GI50 is above 100 µM and the TGI is above 100 µM.
In the case of `CC(=O)Nc1cccc(-n2c(=O)n(C3CC3)c(=O)c3c(Nc4ccc(I)cc4F)n(C)c(=O)c(C)c32)c1`, the GI50 was < 0.01 µM and 0.00172 µM; the TGI was 15.9 µM and > 10 µM.
Compound `COC(=O)C(=O)CC(=O)CCn1ncc(Cl)c(Cl)c1=O` gave a TGI of 15 µM.
In the case of `Fc1cccc(COc2ccc(Nc3ncncc3C#Cc3ccccc3)cc2Cl)c1`, the GI50 is above 25 µM and the TGI was above 25 µM.
`Nc1n[nH]c2ccc([C@@H]3Nc4ccc5[nH]ncc5c4[C@H]4[C@H]5CCC(C5)[C@H]43)cc12`: the GI50 is 0.35 µM and the TGI was above 36.8 µM.

The test system of a further assay is K-562 leukemia. Description: growth of human tumour cells (NCI), 48 h.
As to `COc1ccc(NC(=O)Nc2n[nH]c3ccccc23)cc1`, the GI50 was above 100 µM and the TGI is above 100 µM.
Regarding `CC(=O)Nc1cccc(-n2c(=O)n(C3CC3)c(=O)c3c(Nc4ccc(I)cc4F)n(C)c(=O)c(C)c32)c1`, the GI50 was 0.0955 µM and 0.196 µM; the TGI was above 100 µM.
`COC(=O)C(=O)CC(=O)CCn1ncc(Cl)c(Cl)c1=O`: the TGI was found to be 9.54 µM.
Take `Fc1cccc(COc2ccc(Nc3ncncc3C#Cc3ccccc3)cc2Cl)c1`: the GI50 is above 25 µM and the TGI is above 25 µM.
As to `Nc1n[nH]c2ccc([C@@H]3Nc4ccc5[nH]ncc5c4[C@H]4[C@H]5CCC(C5)[C@H]43)cc12`, the GI50 is 0.264 µM and the TGI is above 100 µM.

In the next assay the test system is LOX IMVI melanoma. Description: growth of human tumour cells (NCI), 48 h.
Consider `COc1ccc(NC(=O)Nc2n[nH]c3ccccc23)cc1`, for which the GI50 was above 100 µM and the TGI was above 100 µM.
For `CC(=O)Nc1cccc(-n2c(=O)n(C3CC3)c(=O)c3c(Nc4ccc(I)cc4F)n(C)c(=O)c(C)c32)c1`, the GI50 was < 0.0122 µM and 0.0262 µM; the TGI was 5.46 µM and > 10 µM.
`COC(=O)C(=O)CC(=O)CCn1ncc(Cl)c(Cl)c1=O` gave a TGI of 15.3 µM.
Take `Fc1cccc(COc2ccc(Nc3ncncc3C#Cc3ccccc3)cc2Cl)c1`: the GI50 is above 25 µM and the TGI is above 25 µM.
`Nc1n[nH]c2ccc([C@@H]3Nc4ccc5[nH]ncc5c4[C@H]4[C@H]5CCC(C5)[C@H]43)cc12`: the GI50 is 0.7 µM and the TGI came to 14.5 µM.

In another assay the test system is NCI-H23 lung. The experiment in a line: growth of human tumour cells (NCI), 48 h.
In the case of `COc1ccc(NC(=O)Nc2n[nH]c3ccccc23)cc1`, the GI50 is above 100 µM and the TGI is above 100 µM.
With `CC(=O)Nc1cccc(-n2c(=O)n(C3CC3)c(=O)c3c(Nc4ccc(I)cc4F)n(C)c(=O)c(C)c32)c1`, the GI50 was < 0.01 µM and 0.0212 µM; the TGI was 19.3 µM and > 10 µM.
`COC(=O)C(=O)CC(=O)CCn1ncc(Cl)c(Cl)c1=O` came in with a TGI of 26.9 µM.
As to `Fc1cccc(COc2ccc(Nc3ncncc3C#Cc3ccccc3)cc2Cl)c1`, the GI50 was above 25 µM and the TGI was above 25 µM.
With `Nc1n[nH]c2ccc([C@@H]3Nc4ccc5[nH]ncc5c4[C@H]4[C@H]5CCC(C5)[C@H]43)cc12`, the GI50 was 0.654 µM and the TGI was above 46 µM.

The test system of another assay is NCI/ADR-RES ovarian. The experiment in a line: growth of human tumour cells (NCI), 48 h.
With `COc1ccc(NC(=O)Nc2n[nH]c3ccccc23)cc1`, the GI50 is above 100 µM and the TGI was above 100 µM.
`CC(=O)Nc1cccc(-n2c(=O)n(C3CC3)c(=O)c3c(Nc4ccc(I)cc4F)n(C)c(=O)c(C)c32)c1`: the GI50 is 2.29 µM and > 10 µM; the TGI is 40.6 µM and > 10 µM.
For `COC(=O)C(=O)CC(=O)CCn1ncc(Cl)c(Cl)c1=O`, the GI50 is 18.6 µM and the TGI was 44.1 µM.
The corresponding values for `Fc1cccc(COc2ccc(Nc3ncncc3C#Cc3ccccc3)cc2Cl)c1` are above 25 µM and above 25 µM.
The corresponding values for `Nc1n[nH]c2ccc([C@@H]3Nc4ccc5[nH]ncc5c4[C@H]4[C@H]5CCC(C5)[C@H]43)cc12` are 0.525 µM and above 44.1 µM.

In the next assay the test system is OVCAR-4 ovarian. Description: growth of human tumour cells (NCI), 48 h.
As to `COc1ccc(NC(=O)Nc2n[nH]c3ccccc23)cc1`, the GI50 is above 100 µM and the TGI is above 100 µM.
`CC(=O)Nc1cccc(-n2c(=O)n(C3CC3)c(=O)c3c(Nc4ccc(I)cc4F)n(C)c(=O)c(C)c32)c1`: the GI50 was 0.515 µM and 2.65 µM; the TGI is above 100 µM.
On to `COC(=O)C(=O)CC(=O)CCn1ncc(Cl)c(Cl)c1=O`, for which the TGI turned out to be 6.61 µM.
Take `Fc1cccc(COc2ccc(Nc3ncncc3C#Cc3ccccc3)cc2Cl)c1`: the GI50 was above 25 µM and the TGI was above 25 µM.
Turning to `Nc1n[nH]c2ccc([C@@H]3Nc4ccc5[nH]ncc5c4[C@H]4[C@H]5CCC(C5)[C@H]43)cc12`, the GI50 is 2.05 µM and the TGI was above 100 µM.

In a further assay the test system is PC-3 prostate. The experiment in a line: growth of human tumour cells (NCI), 48 h.
As for `COc1ccc(NC(=O)Nc2n[nH]c3ccccc23)cc1`, the GI50 is above 100 µM and the TGI was above 100 µM.
Take `CC(=O)Nc1cccc(-n2c(=O)n(C3CC3)c(=O)c3c(Nc4ccc(I)cc4F)n(C)c(=O)c(C)c32)c1`: the GI50 was 6.33 µM and > 10 µM; the TGI was 46.3 µM and > 10 µM.
Regarding `COC(=O)C(=O)CC(=O)CCn1ncc(Cl)c(Cl)c1=O`, the GI50 was 14.5 µM and the TGI is 37.2 µM.
Consider `Fc1cccc(COc2ccc(Nc3ncncc3C#Cc3ccccc3)cc2Cl)c1`, for which the GI50 was above 25 µM and the TGI is above 25 µM.
With `Nc1n[nH]c2ccc([C@@H]3Nc4ccc5[nH]ncc5c4[C@H]4[C@H]5CCC(C5)[C@H]43)cc12`, the GI50 is 0.397 µM and the TGI came out at 23 µM.

The subject of a further assay is SR leukemia. Description: growth of human tumour cells (NCI), 48 h.
`COc1ccc(NC(=O)Nc2n[nH]c3ccccc23)cc1`: the GI50 was above 100 µM and the TGI is above 100 µM.
As for `CC(=O)Nc1cccc(-n2c(=O)n(C3CC3)c(=O)c3c(Nc4ccc(I)cc4F)n(C)c(=O)c(C)c32)c1`, the GI50 is 3.65 µM and > 10 µM; the TGI was 45.6 µM and > 10 µM.
With `COC(=O)C(=O)CC(=O)CCn1ncc(Cl)c(Cl)c1=O`, the TGI was 5.76 µM.
Take `Fc1cccc(COc2ccc(Nc3ncncc3C#Cc3ccccc3)cc2Cl)c1`: the GI50 was above 25 µM and the TGI was above 25 µM.
With `Nc1n[nH]c2ccc([C@@H]3Nc4ccc5[nH]ncc5c4[C@H]4[C@H]5CCC(C5)[C@H]43)cc12`, the GI50 was 0.28 µM and the TGI is 20.2 µM.

A further assay relates to UACC-257 melanoma. The experiment in a line: growth of human tumour cells (NCI), 48 h.
For `COc1ccc(NC(=O)Nc2n[nH]c3ccccc23)cc1`, the GI50 is above 100 µM and the TGI was above 100 µM.
In the case of `CC(=O)Nc1cccc(-n2c(=O)n(C3CC3)c(=O)c3c(Nc4ccc(I)cc4F)n(C)c(=O)c(C)c32)c1`, the GI50 was < 0.01 µM and 0.00182 µM; the TGI is < 0.01 µM and 0.0126 µM.
Consider `COC(=O)C(=O)CC(=O)CCn1ncc(Cl)c(Cl)c1=O`, for which the TGI came to 25.8 µM.
As to `Fc1cccc(COc2ccc(Nc3ncncc3C#Cc3ccccc3)cc2Cl)c1`, the GI50 was above 25 µM and the TGI was above 25 µM.
Regarding `Nc1n[nH]c2ccc([C@@H]3Nc4ccc5[nH]ncc5c4[C@H]4[C@H]5CCC(C5)[C@H]43)cc12`, the GI50 is 15.8 µM and the TGI is above 100 µM.

The record behind these values is PubChem BioAssay (NCI).
